Source: patent US20040197299A1, “Topically applicable cosmetic/dermatological compositions comprising hydrolase polypeptides having amidase activity and/or products modulating the activity thereof” (SOCIETE L'OREAL, S.A., priority 2003, published 2004)

Columns and labels:
[1] = target: T1, AGA activity purified from the SC (aspartylglucosaminidase, EC 3.5.1.26) (Homo sapiens, UniProt P20933); assay: AGA activity assay with the fluorescent substrate Asp-AMC; format: biochemical; conditions: L-asparagine used at 1.25 mM
T1 construct: led to the identification of the A chain of AGA (band of 24 kDa); and of the B chain of AGA (bands of 16 and 15 kDa); from tissue; host or cells: human stratum corneum, scraped from the anterior surface of the leg
T1 sequence (P20933 24-205 limits assumed): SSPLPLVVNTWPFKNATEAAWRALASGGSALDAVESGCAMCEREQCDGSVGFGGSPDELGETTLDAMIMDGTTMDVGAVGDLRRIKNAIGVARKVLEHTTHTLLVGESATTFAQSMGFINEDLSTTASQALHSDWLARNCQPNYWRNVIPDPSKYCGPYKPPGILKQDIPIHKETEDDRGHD
T1 sequence (P20933 206-346 limits assumed): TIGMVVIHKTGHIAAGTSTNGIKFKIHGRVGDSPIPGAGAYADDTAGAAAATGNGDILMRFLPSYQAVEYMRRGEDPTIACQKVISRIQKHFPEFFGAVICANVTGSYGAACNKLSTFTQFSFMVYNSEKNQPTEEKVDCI
Experimental: The purification of AGA is monitored by assaying of activity with the fluorescent substrate L-aspartic acid beta(7-amido-4-methylcoumarin) (Asp-AMC) according to the method described by Mononen I. T. et al., 1993, Analytical Biochemistry, 208, 372-374. 10 μl of each eluted fraction are incubated for 24 h at 37° C. with 100 μl of Asp-AMC substrate diluted to 1 mM in 0.1 M Tris-HCl buffer, pH 8. The fluorescence is quantified on a Biolumin reader (excitation/emission: 340/450 nm).
The AGA activity was assayed with the substrate Asp-AMC in various SC extracts.

corneodesmosin = assay: Corneodesmosin signal after incubation of SC acetone powder with semi-purified AGA (immunoblot); format: biochemical; conditions: 8 hours, 37° C., pH 8
Experimental: An SC acetone powder obtained by the “varnish stripping” technique as described by Mehul B. et al. (2000, The Journal of Biological Chemistry, Vol. 275, No. 17, 12841-12847) is incubated with a semi-purified AGA extract in the presence or otherwise of 5 mM L-asparagine at the rate of 100 μl of incubation solution per mg of acetone powder. The incubations are carried out in 0.1 M Tris-HCl buffer, pH 8, at 37° C., for 8 hours, with stirring. A test t0 is made as well as a control: buffer alone.
The soluble proteins of each sample are then extracted under denaturing conditions (SDS, DTT and boiling). The total proteins are assayed according to the Bradford method and the concentrations are aligned at 0.6 mg/ml in Laemmli extraction buffer.
An SDS-PAGE separation is then carried out, followed by a transfer onto PVDF membrane marketed by Millipore. The corneodesmosin is immunodetected with the monoclonal antibody G3619 described in Serre G. et al. (1991, J. Invest. Dermatol., 97, 1061-1072) diluted 1/12500.
Each blot is then stained with a 0.03% amido black solution (SIGMA) in order to normalize the quantity of corneodesmosin relative to a quantification of the keratins.
FIG. 2 presents the variation of the corneodesmosin signal after incubation of various quantities of semi-purified AGA with an acetone powder for 8 hours.

| inhibition of the AGA activity purified from the SC [1] | Compound | inhibition of the AGA-induced decrease in corneodesmosin (corneodesmosin; L-asparagine at 5 mM, 10 μl of AGA condition) | variation of the quantity of corneodesmosin (prodesquamating effect) (corneodesmosin; SC acetone powder incubated with increasing quantities of semi-purified AGA) |
| --- | --- | --- | --- |
| inhibit the AGA activity | NC(=O)C[C@H](N)C(=O)O [L-asparagine] | inhibits this effect |  |
|  | aspartylglucosaminidase AGA (EC 3.5.1.26) |  | decrease in the quantity of corneodesmosin |
